Data: PubChem BioAssay (NCI)
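Exposure lasted 48 hours, with cells grown in 96-well plates and compounds tested at five concentrations. TGI denotes the concentration required for complete inhibition of growth.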

Experiments:
Experiment in all cases: growth of human tumour cells (NCI), 48 h
SK-MEL-5 melanoma = tested on: SK-MEL-5 melanoma
SW-620 colon = tested on: SW-620 colon
ACHN renal = tested on: ACHN renal
UO-31 renal = tested on: UO-31 renal
RPMI-8226 leukemia = tested on: RPMI-8226 leukemia
CCRF-CEM leukemia = tested on: CCRF-CEM leukemia
SF-539 CNS = tested on: SF-539 CNS
SF-268 CNS = tested on: SF-268 CNS
HCT-116 colon = tested on: HCT-116 colon
IGROV1 ovarian = tested on: IGROV1 ovarian
OVCAR-5 ovarian = tested on: OVCAR-5 ovarian
K-562 leukemia = tested on: K-562 leukemia
MDA-MB-435 = tested on: MDA-MB-435
COLO 205 colon = tested on: COLO 205 colon
HOP-92 NSCLC = tested on: HOP-92 NSCLC
A498 renal = tested on: A498 renal
NCI-H522 lung = tested on: NCI-H522 lung
HT29 colon = tested on: HT29 colon
EKVX NSCLC = tested on: EKVX NSCLC
OVCAR-4 ovarian = tested on: OVCAR-4 ovarian
UACC-62 melanoma = tested on: UACC-62 melanoma
HS 578T breast = tested on: HS 578T breast
A549 NSCLC = tested on: A549 NSCLC
HOP-62 NSCLC = tested on: HOP-62 NSCLC
SN12C renal = tested on: SN12C renal
OVCAR-8 ovarian = tested on: OVCAR-8 ovarian
SF-295 CNS = tested on: SF-295 CNS
SK-OV-3 ovarian = tested on: SK-OV-3 ovarian
DU-145 prostate = tested on: DU-145 prostate
OVCAR-3 ovarian = tested on: OVCAR-3 ovarian
SR leukemia = tested on: SR leukemia
MOLT-4 leukemia = tested on: MOLT-4 leukemia
SNB-75 CNS = tested on: SNB-75 CNS
HL-60(TB) leukemia = tested on: HL-60(TB) leukemia
PC-3 prostate = tested on: PC-3 prostate
M14 melanoma = tested on: M14 melanoma
NCI-H226 lung = tested on: NCI-H226 lung
MDA-N = tested on: MDA-N
U251 CNS = tested on: U251 CNS
HCT-15 colon = tested on: HCT-15 colon
SK-MEL-28 melanoma = tested on: SK-MEL-28 melanoma
NCI-H23 lung = tested on: NCI-H23 lung
KM12 colon = tested on: KM12 colon
MALME-3M melanoma = tested on: MALME-3M melanoma
SNB-19 CNS = tested on: SNB-19 CNS
CAKI-1 renal = tested on: CAKI-1 renal
T-47D breast = tested on: T-47D breast
MDA-MB-231 breast = tested on: MDA-MB-231 breast
BT-549 breast = tested on: BT-549 breast
786-0 renal = tested on: 786-0 renal
RXF 393 renal = tested on: RXF 393 renal
UACC-257 melanoma = tested on: UACC-257 melanoma
MCF7 breast = tested on: MCF7 breast
NCI/ADR-RES ovarian = tested on: NCI/ADR-RES ovarian
SK-MEL-2 melanoma = tested on: SK-MEL-2 melanoma
NCI-H460 lung = tested on: NCI-H460 lung
LOX IMVI melanoma = tested on: LOX IMVI melanoma
TK-10 renal = tested on: TK-10 renal

Cc1[nH]c(-c2ccccc2)c(O)c1C(=O)OC12CC3CC(CC(C3)C1)C2
TGI (SK-MEL-5 melanoma): 28 µM
TGI (SW-620 colon): 29.7 µM
TGI (ACHN renal): 29.7 µM
TGI (UO-31 renal): 32.6 µM
TGI (RPMI-8226 leukemia): > 100 µM
TGI (CCRF-CEM leukemia): > 100 µM
TGI (SF-539 CNS): 23.7 µM
TGI (SF-268 CNS): 27.2 µM
TGI (HCT-116 colon): 30.4 µM
TGI (IGROV1 ovarian): 27.4 µM
TGI (OVCAR-5 ovarian): 26.8 µM
TGI (K-562 leukemia): > 100 µM
TGI (MDA-MB-435): 28.6 µM
TGI (COLO 205 colon): 27 µM
TGI (HOP-92 NSCLC): 34.8 µM
TGI (A498 renal): 35 µM
TGI (NCI-H522 lung): 22.9 µM
TGI (HT29 colon): 17.2 µM
TGI (EKVX NSCLC): 27 µM
TGI (OVCAR-4 ovarian): 34.4 µM
TGI (UACC-62 melanoma): 32.8 µM
TGI (HS 578T breast): 25.9 µM
TGI (A549 NSCLC): 25.7 µM
TGI (HOP-62 NSCLC): 28.1 µM
TGI (SN12C renal): 30.1 µM
TGI (OVCAR-8 ovarian): 25.8 µM
TGI (SF-295 CNS): 14.1 µM
TGI (SK-OV-3 ovarian): 28.1 µM
TGI (DU-145 prostate): 29.3 µM
TGI (OVCAR-3 ovarian): 27.8 µM
TGI (SR leukemia): 44 µM
TGI (MOLT-4 leukemia): 32.3 µM
TGI (SNB-75 CNS): 23.1 µM
TGI (HL-60(TB) leukemia): > 100 µM
TGI (PC-3 prostate): 28.9 µM
TGI (M14 melanoma): 24.9 µM
TGI (NCI-H226 lung): 27.1 µM
TGI (MDA-N): 31.2 µM
TGI (U251 CNS): 28.2 µM
TGI (HCT-15 colon): 27.4 µM
TGI (SK-MEL-28 melanoma): 27.8 µM
TGI (NCI-H23 lung): 31.6 µM
TGI (KM12 colon): 19.3 µM
TGI (MALME-3M melanoma): 28 µM
TGI (SNB-19 CNS): 28.3 µM
TGI (CAKI-1 renal): 35.4 µM
TGI (T-47D breast): 29.5 µM
TGI (MDA-MB-231 breast): 33.1 µM
TGI (BT-549 breast): 31.8 µM
TGI (786-0 renal): 27 µM
TGI (RXF 393 renal): 20.1 µM
TGI (UACC-257 melanoma): 31.2 µM
TGI (MCF7 breast): 28 µM
TGI (NCI/ADR-RES ovarian): 27.3 µM
TGI (SK-MEL-2 melanoma): 31.3 µM
TGI (NCI-H460 lung): 21.3 µM

Cn1c(-c2ccccc2)c2cc3nc4ccccc4nc3cc2c1-c1ccccc1
TGI (SK-MEL-5 melanoma): 9.71 µM
TGI (SW-620 colon): 92.5 µM
TGI (ACHN renal): 83.3 µM
TGI (UO-31 renal): > 100 µM
TGI (RPMI-8226 leukemia): 30.1 µM
TGI (SF-539 CNS): 41.2 µM
TGI (SF-268 CNS): 86.9 µM
TGI (HCT-116 colon): > 100 µM
TGI (IGROV1 ovarian): > 100 µM
TGI (OVCAR-5 ovarian): > 100 µM
TGI (K-562 leukemia): 82.6 µM
TGI (MDA-MB-435): 77.4 µM
TGI (COLO 205 colon): 9.09 µM
TGI (HOP-92 NSCLC): 94.2 µM
TGI (A498 renal): 59.5 µM
TGI (NCI-H522 lung): 40.3 µM
TGI (HT29 colon): > 100 µM
TGI (EKVX NSCLC): > 100 µM
TGI (OVCAR-4 ovarian): > 100 µM
TGI (UACC-62 melanoma): 30.2 µM
TGI (HS 578T breast): 45.9 µM
TGI (A549 NSCLC): > 100 µM
TGI (HOP-62 NSCLC): 35.9 µM
TGI (SN12C renal): 51.3 µM
TGI (OVCAR-8 ovarian): > 100 µM
TGI (SF-295 CNS): 89.8 µM
TGI (SK-OV-3 ovarian): 64.9 µM
TGI (DU-145 prostate): > 100 µM
TGI (OVCAR-3 ovarian): > 100 µM
TGI (SR leukemia): 24.2 µM
TGI (MOLT-4 leukemia): 64.6 µM
TGI (SNB-75 CNS): > 100 µM
TGI (HL-60(TB) leukemia): 52.6 µM
TGI (PC-3 prostate): 70.4 µM
TGI (M14 melanoma): 31.3 µM
TGI (MDA-N): 38.9 µM
TGI (U251 CNS): > 100 µM
TGI (HCT-15 colon): 53.4 µM
TGI (SK-MEL-28 melanoma): > 100 µM
TGI (NCI-H23 lung): 44.1 µM
TGI (KM12 colon): 72.1 µM
TGI (MALME-3M melanoma): 78.7 µM
TGI (SNB-19 CNS): > 100 µM
TGI (CAKI-1 renal): > 100 µM
TGI (T-47D breast): > 100 µM
TGI (MDA-MB-231 breast): > 100 µM
TGI (BT-549 breast): 80.8 µM
TGI (RXF 393 renal): 54.4 µM
TGI (UACC-257 melanoma): > 100 µM
TGI (MCF7 breast): 47.2 µM
TGI (LOX IMVI melanoma): 65 µM
TGI (TK-10 renal): > 100 µM
TGI (NCI/ADR-RES ovarian): > 100 µM
TGI (SK-MEL-2 melanoma): 60.3 µM
TGI (NCI-H460 lung): 25.2 µM
